Test results reported in US7914821B2, “Pharmaceutical composition for prevention and/or treatment of bone loss” (KO DA Pharmaceuticals Co., Ltd., priority 2008, dated 2011).

B1: noggin: noggin, 1 μg/ml, suppressed the imperatorin or bergapten induced-ALP activity (protein, UniProt Q13253 28-232, looked up)
Noggin: QHYLHIRPAPSDNLPLVDLIEHPDPIFDPKEKDLNETLLRSLLGGHYDPGFMATSPPEDRPGGGGGAAGGAEDLAELDQLLRQRPSGAMPSEIKGLEFSEGLAQGKKQRLSKKLRRKLQMWLWSQTFCPVLYAWNDLGSRFWPRYVKVGSCFSKRSCSVPEGMVCKPSKSVHLTVLRWRCQRRGGQRCGWIPIQYPIISECKCSC

Columns and labels:
Format in all cases: cell-based, rat
Bone cells [1] = experiment: Effect of p38 and ERK inhibitors on ALP activity in bone cells; conditions: 10 μM inhibitor with 10 μM imperatorin or bergapten, 48 hrs; FIG. 11C
Protocol: (§1) Rat primary osteoblast was isolated from the parietal bone of gestation day 18 embryos of Sprague-Dawley rats. After being slaughtered, the embryo rats were obtained from the uteruses of the rats, and calvarium was isolated from the embryo rats. Parietal bone was cut from the calvarium and digested by 0.1% collagenase for 20 minutes to release the bone cells from the bone tissue. The digestion step was repeated five times. The collected bone cells were cultured in α-MEM containing 1% penicillin-streptomycin and 10% FBS in a humidified atmosphere of 5 percent carbon dioxide. When cells were attached and confluence, they were sub-cultured, which was called “passage 2 (P2)”. The passage was for analogizing. 2 to 5 passage cells were used for the experiments.
Bone cells were cultured and treated with (1) 10 μM SB203580, (2) 10 μM PD98059, (3) 10 μM imperatori, (4) 10 μM bergapten, (5) 10 μM imperatorin+SB203580, (6) 10 μM bergapten+SB203580, (7) 10 μM imperatorin+PD98059 ? (8) 10 μM bergapten+PD98059 for 48 hrs. After treatment, the bone cells were lysed in 0.2% […] solution and centrifuged at 1500×g for 5 minutes. The supernatant was analyzed by an ALP kit such as described above to obtain the ALP activity. The ALP activity in the control group which was treated with 0.1% DMSO was defined as 100%. […]

EPK protein = experiment: Effect of ERK inhibitor on induced phosphorylation of EPK protein; conditions: inhibitor for 30 minutes before imperatorin and bergapten; FIGS. 11A-11B
Protocol: Bone cells was cultured in 6-well plate and treated with 10 μM of imperatorin and bergapten for 1, 3, 6, 12, and 24 hrs, respectively. After treatment, the culture medium was replaced with a lysis buffer containing 50 mM HEPES (PH 7.4), 150 mM NaCl, 4 mM EDTA, 10 mM Na4P2O7, 100 mM NaF, 2 mM Na3VO4, 1% (v/v) Triton X-100, 0.25% (w/v) sodium deoxycholate, 50 mM 4-(2-aminoethyl)benzene sulfonylfluoride, 50 μg/ml leupeptin, and 20 μg/ml aprotinin, and then centrifuged at 13000 rpm for 15 minutes to obtain the protein pellets. 30 μg of proteins were dissolved in 5× Laemmli buffer, boiled at 95° C. for 5 minutes, and then subjected to SDS-PAGE gel (8%) electrophoresis. Proteins on the gel were then transferred to a PVDF membrane. The PVDF membrane was blocked in 4% BSA solution for 1 hour at room temperature. The blocked membrane was then incubated in PBST buffer (0.1% Tween-20) containing p-SMAD, p-ERK, or p38 primary antibody. Following incubation with primary antibody, the membrane was washed three times with PBST, and then incubated for 1 hr at room temperature with the secondary antibody, an anti-mouse or anti-goat IgG labeled with horseradish peroxidase. Following incubation with the secondary antibody, the membrane was washed three times with PBST, and detected by an […] chemiluminescence using an ECL blotting substrate according to the manufacturer's instructions. […]

p38 = experiment: Effect of p38 inhibitor on induced phosphorylation of p38; conditions: inhibitor for 30 minutes before imperatorin and bergapten; FIGS. 11A-11B
Protocol: Bone cells was cultured in 6-well plate and treated with 10 μM of imperatorin and bergapten for 1, 3, 6, 12, and 24 hrs, respectively. […] 30 μg of proteins were dissolved in 5× Laemmli buffer, boiled at 95° C. for 5 minutes, and then subjected to SDS-PAGE gel (8%) electrophoresis. Proteins on the gel were then transferred to a PVDF membrane. The PVDF membrane was blocked in 4% BSA solution for 1 hour at room temperature. The blocked membrane was then incubated in PBST buffer (0.1% Tween-20) containing p-SMAD, p-ERK, or p38 primary antibody. Following incubation with primary antibody, the membrane was washed three times with PBST, and then incubated for 1 hr at room temperature with the secondary antibody, an anti-mouse or anti-goat IgG labeled with horseradish peroxidase. Following incubation with the secondary antibody, the membrane was washed three times with PBST, and detected by an enzyme-linked chemiluminescence using an ECL blotting substrate according to the manufacturer's instructions.
In the control group, a non-phosphorylation p38 and non-phosphorylation EPK proteins were subjected to SDS-PAGE gel electrophoresis.

Bone cells [2] = experiment: ALP activity with imperatorin, bergapten and noggin; conditions: 1 μg/ml noggin with 10 μM imperatorin or 10 μM bergapten, 48 hrs; FIG. 9C
Protocol: as §1
Bone cells were treated with (1) 10 μM imperatorin, (2) 10 μM bergapten, (3) 10 μM imperatorin+noggin, (4) 10 μM bergapten+noggin, and (5) 1 μg/ml noggin for 48 his, respectively. After treatment, the bone cells were lysed in 0.2% […] solution, and then centrifuged at 1500×g for 5 minutes to obtain a supernatant. The supernatant was analyzed by ALP kit as described above to obtain the ALP activity. The ALP activity in the control group which was treated with 0.1% DMSO was defined as 100%. Referring to FIG. 9C, noggin suppressed the imperatorin or bergapten induced-ALP activity.

Molecule | imperatorin and bergapten induced-ALP activity (Bone cells [1]) | imperatorin and bergapten induced-phosphorylation (EPK protein) (EPK protein) | imperatorin and bergapten induced-phosphorylation (p38) (p38) | imperatorin or bergapten induced-ALP activity (Bone cells [2])
COc1cccc(-c2cc(=O)c3ccccc3o2)c1N [PD98059] | suppressed | suppressed | – | –
C[S+]([O-])c1ccc(-c2nc(-c3ccncc3)c(-c3ccc(F)cc3)[nH]2)cc1 (centres unmarked) [SB203580] | suppressed | – | suppressed | –
B1 | – | – | – | suppressed
